Among the test systems are RXF-631 renal; MDA-N; SNB-78 CNS; DLD-1 colon; XF 498 CNS; DMS 273 small cell lung; M19-MEL melanoma; HOP-18 NSCLC; NCI/ADR-RES ovarian.
Common to all, as to experiment: DTP human tumour cell line panel, 48 h

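How tested: cells in 96-well plates exposed to compound for 48 hours at five concentrations. TGI denotes the concentration required for complete inhibition of growth.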

The TGI is the concentration giving total growth inhibition. Take `O=C1C=CC2(C=C1)C[C@H](NC(=O)OCc1ccccc1)C(=O)O2`: the concentration for total growth inhibition (TGI) with RXF-631 renal was determined as 40.8 µM; in the assay on MDA-N, 28.9 µM; in the assay with SNB-78 CNS, 67.2 µM; in the assay on DLD-1 colon, 14.1 µM; in the assay on XF 498 CNS it was 32 µM; with DMS 273 small cell lung, 35 µM. The concentration for total growth inhibition (TGI) stood at 33.7 µM in the assay with M19-MEL melanoma and 31.5 µM in the assay on HOP-18 NSCLC.

Take `C=C(CCCO)[C@@H]1CC[C@@](C)(O)[C@H]1C`: the total growth inhibition concentration (TGI) in the assay on RXF-631 renal, in the assay with SNB-78 CNS, with XF 498 CNS, with DMS 273 small cell lung, in the assay with M19-MEL melanoma and in the assay with HOP-18 NSCLC was greater than 100 µM in each case.

In the case of `C/C(=N\NC(=O)CC(=O)N(C(=O)c1ccc(Cl)cc1)c1ccc(C)cc1)c1ccccc1O`, the concentration for total growth inhibition (TGI) in the assay on RXF-631 renal, in the assay on SNB-78 CNS, in the assay with DLD-1 colon, in the assay with XF 498 CNS, in the assay on DMS 273 small cell lung and in the assay on M19-MEL melanoma was greater than 100 µM throughout.

Turning to `Cc1ccc2nc(NC(=O)/C(=N\NC(=S)NN)C3C(=O)NC(=S)NC3=O)sc2c1`, the total growth inhibition concentration (TGI) with RXF-631 renal, with SNB-78 CNS, in the assay with DLD-1 colon, with XF 498 CNS, with DMS 273 small cell lung and in the assay on HOP-18 NSCLC was greater than 100 µM in each case.

For `COC[C@H](C)N=CN1CCc2ccccc2C1(Cc1ccccc1)Cc1ccccc1`, the total growth inhibition concentration (TGI) with RXF-631 renal was 34.9 µM; with DLD-1 colon it was 29.8 µM; in the assay on XF 498 CNS, 24.8 µM; in the assay on HOP-18 NSCLC it was 24 µM.

With `c1ccc2c(NCCCCCCNc3cccc4ccccc34)cccc2c1`, the TGI in the assay on RXF-631 renal, in the assay on SNB-78 CNS, in the assay on DLD-1 colon, in the assay on XF 498 CNS, in the assay on DMS 273 small cell lung and in the assay on M19-MEL melanoma was greater than 100 µM each time. Also, the TGI in the assay with HOP-18 NSCLC was greater than 100 µM.

For the compound `Nc1ccc(Sc2c3ccccc3nc3ccccc23)cc1`, the concentration for total growth inhibition (TGI) in the assay with MDA-N came to 38.5 µM; with SNB-78 CNS, 53.3 µM; in the assay on DLD-1 colon it was 19.7 µM; in the assay with XF 498 CNS, 28 µM; in the assay on DMS 273 small cell lung, 28.8 µM; with M19-MEL melanoma, 47.9 µM. Besides, the concentration for total growth inhibition (TGI) stood at 41.7 µM in the assay with HOP-18 NSCLC and 36 µM in the assay on NCI/ADR-RES ovarian.

Consider `COc1c2c(cc3c1C(=O)Cc1ccc4c(c1CN(C)CC3)OCO4)OCO2`, for which the TGI in the assay on RXF-631 renal, in the assay on SNB-78 CNS, in the assay with DLD-1 colon, with M19-MEL melanoma and with HOP-18 NSCLC was greater than 100 µM in each case.

`c1ccc(N/N=C2\NN=C(c3ccccc3)CS2)cc1`: the values for the TGI with RXF-631 renal and with SNB-78 CNS were 35.8 µM and 34.2 µM, respectively.

Take `COC(=O)/C(=N\NC(N)=O)C(C(=O)C=C(C)C)C(=O)C(=O)Nc1ccc(Cl)c(Cl)c1` (stereo not given): the TGI in the assay with RXF-631 renal, with SNB-78 CNS, in the assay on DLD-1 colon, with XF 498 CNS, with DMS 273 small cell lung and in the assay with M19-MEL melanoma was greater than 100 µM each time. This compound displayed a concentration for total growth inhibition (TGI) in the assay with HOP-18 NSCLC greater than 100 µM.

In the case of `O=C1C2C3C=CC(C2C(=O)N1CN1CCSCC1)C1C2C(=O)N(CN4CCSCC4)C(=O)C2C31` (stereo not given), the total growth inhibition concentration (TGI) in the assay with RXF-631 renal was greater than 100 µM; with SNB-78 CNS it was greater than 100 µM; in the assay with DLD-1 colon, greater than 79.3 µM; with XF 498 CNS, greater than 100 µM; in the assay with DMS 273 small cell lung it was greater than 61.4 µM; with M19-MEL melanoma, greater than 100 µM. In the assay on HOP-18 NSCLC, this compound showed a TGI of 91.5 µM.

Consider `COc1cc(/C=C2/C(=O)N(C(=O)OCc3ccccc3)C(Cc3cc(OC)c(OC)c(C)c3OC)C(=O)N2Cc2ccccc2)c(OC)c(C)c1OC` (stereo not given), for which the TGI in the assay with RXF-631 renal, in the assay on DLD-1 colon, in the assay on DMS 273 small cell lung, with M19-MEL melanoma and in the assay on HOP-18 NSCLC was greater than 100 µM throughout.

As to `Cc1ccccc1C1CC(c2ccccc2)=NO1` (stereo not given), the total growth inhibition concentration (TGI) with RXF-631 renal, with SNB-78 CNS, in the assay with DLD-1 colon, with DMS 273 small cell lung and in the assay with HOP-18 NSCLC was greater than 100 µM each time.

As for `O=c1cc(-c2ccccc2)[nH]c2cc(Cl)ccc12`, the TGI in the assay with SNB-78 CNS is greater than 100 µM; in the assay with DLD-1 colon, 23.8 µM; in the assay on XF 498 CNS, 1.71 µM; in the assay with DMS 273 small cell lung, 10.5 µM; with M19-MEL melanoma, greater than 100 µM; in the assay on HOP-18 NSCLC, greater than 100 µM.

On to `CCOC(=O)C(C(O)c1ccc([N+](=O)[O-])cc1)P(=O)(OCC)OCC` (stereo not given), for which the concentration for total growth inhibition (TGI) in the assay with RXF-631 renal, in the assay with DLD-1 colon, in the assay with XF 498 CNS, with DMS 273 small cell lung, in the assay on M19-MEL melanoma and with HOP-18 NSCLC was greater than 100 µM throughout.

Consider `COC(=O)C(/C(=N\NC(N)=S)C(=O)Nc1ccccc1[N+](=O)[O-])c1cnc2ccccc2n1` (stereo not given), for which the TGI with RXF-631 renal, in the assay with SNB-78 CNS, in the assay with DLD-1 colon, in the assay on XF 498 CNS, with DMS 273 small cell lung and with M19-MEL melanoma was greater than 100 µM each time. This compound also displayed a TGI with HOP-18 NSCLC greater than 100 µM.

As for `C=CCN(N=O)C(=O)NCCCCC(NC(C)=O)C(=O)NCc1ccccc1` (stereo not given), the total growth inhibition concentration (TGI) with RXF-631 renal, in the assay with XF 498 CNS, in the assay on DMS 273 small cell lung, with M19-MEL melanoma and in the assay on HOP-18 NSCLC was greater than 100 µM throughout.
